Our source for the EC50 values is patent US20250042922A1, “KRAS MODULATING COMPOUNDS” (priority 2023, published 2025).

The structures appear in SMILES notation.

Assay [1] concerns cellular pERK in NCI-H441 (KRAS-G12V) cells. As to the kind of experiment: Cell based pERK assay, NCI-H441. Conditions: Homo sapiens; NCI-H441 (KRAS-G12V), 2 hours incubation, HTRF phospho-ERK1/2; read-out: H441 PERK EC50. As to the method: (§1) Compounds were tested in a 384-well assay format for their ability to inhibit cellular pERK in Kuramochi (WT KRAS), MIA-PaCa-2 (KRAS-G12C), ASPC-1 (KRAS G12D), and NCI-H441 (KRAS-G12V) cell-lines. Compounds were serially diluted (1:3) in DMSO. On day −1, 80 μL of cells were plated per well in the 384 well tissue-culture plates (Greiner: Cat #781080) to seed 5000 cells per wells of AsPC-1 or 7500 cells of MIA-PaCa-2, NCI-H441, and Kuramochi cell lines in RPMI (Corning: Cat #10-040-CM) with 10% fetal bovine serum (FBS) (HyClone: Cat #SH30071-03) and 1× penicillin-streptomycin-glutamate (PSG) (Corning: Cat #30-009-CI) for […] and Kuramochi cell lines and DMEM (Corning: Cat #15-018-CM) with 10% FBS and 1×PSG for MIA-PaCa-2 cell line. The plates were then incubated overnight at 37° C. and 5% CO2. On day 0, 400 nL of compound/well was added into the cell plates and mixed 5 times by pipetting using a Beckmann Biomek FX. The cell plates were then incubated for 2 hours at 37° C. and 5% CO2. HTRF Advanced Phospho-ERK1/2 (THR202/TYR204) Detection Kits (PerkinElmer: Cat #64AERPEG) were used to prepare the lysis and detection solution according to manufacturer protocol. Following the 2 hour incubation, 70 μL of medium was aspirated from the plates and 10 uL of lysis and detection solution was added to the plates using a Biotek EL406 washer and dispenser. Plates were sealed and stored overnight at room temperature. HTRF ratio (665 nm/615 nm) was read by Envision multimode reader (PerkinElmer) the next day. The TR-FRET ratios were normalized to a positive (saturating concentration of known inhibitor) and negative (DMSO) control and plotted against the log of compound concentration.

In assay [2] the test system is cellular pERK in Kuramochi (WT KRAS) cells. The experiment in a line: Cell based pERK assay, Kuramochi. The conditions noted are these: Kuramochi (WT KRAS), 2 hours incubation, HTRF phospho-ERK1/2; read-out: Kuramochi pERK EC50. On the procedure:
as §1

The test system of assay [3] is cellular pERK in ASPC-1 (KRAS G12D) cells. As to the kind of experiment: Cell based pERK assay, ASPC-1. The conditions noted are these: Homo sapiens, ASPC1; ASPC-1 (KRAS G12D), 2 hours incubation, HTRF phospho-ERK1/2; read-out: AsPC1 pERK EC50. As to the method:
as §1
A general note: TR-FRET usually uses a lanthanide donor and a delayed reading to cut background.

In assay [4] the test system is cellular pERK in MIA-PaCa-2 (KRAS-G12C) cells. As to the kind of experiment: Cell based pERK assay, MIA-PaCa-2. Conditions: Homo sapiens; MIA-PaCa-2 (KRAS-G12C), 2 hours incubation, HTRF phospho-ERK1/2; read-out: MIAPaCa2 pERK EC50. On the procedure:
as §1

As usually defined, the EC50 is the concentration needed to bring the measured effect to its halfway point. With `C#Cc1c(F)ccc2cc(N)cc(-c3nc4c5c(nc(OC[C@@]67CCCN6C[C@H](F)C7)nc5c3F)N3C[C@@]5(F)CC[C@](F)(N5)[C@H]3CCC4)c12` [Example 4-2, 5-ethynyl-6-fluoro-4-((6aR,7R,10S)-1,7,10-trifluoro-13-(((2R,7aS)-2-fluorotetrahydro-1H-pyrrolizin-7a(5H)-yl)methoxy)-5,6,6a,7,8,9,10,11-octahydro-4H-3,11a,12,14,15-pentaaza-7,10-methanocyclohepta[4,5]cycloocta[1,2,3-de]naphthalen-2-yl)naphthalen-2-amine], the figures for the EC50 in assay [1], in assay [2] and in assay [3] were 3.04 nM, 2.89 nM and 20 nM, respectively.
For `C#Cc1c(F)ccc2cc(O)cc(-c3nc4c5c(nc(OCC67CCCN6CCC7)nc5c3F)N3C[C@@]5(F)CC[C@](F)(N5)[C@H]3CCC4)c12` [Example 4-5, 5-ethynyl-6-fluoro-4-((6aR,7R,10S)-1,7,10-trifluoro-13-((tetrahydro-1H-pyrrolizin-7a(5H)-yl)methoxy)-5,6,6a,7,8,9,10,11-octahydro-4H-3,11a,12,14,15-pentaaza-7,10-methanocyclohepta[4,5]cycloocta[1,2,3-de]naphthalen-2-yl)naphthalen-2-ol], the EC50 in assay [4] was 0.397 nM; in assay [2], 6.47 nM; in assay [3], 10.1 nM.
For the molecule `N#Cc1c(F)ccc2cc(O)cc(-c3nc4c5c(nc(OCC67CCCN6CCC7)nc5c3F)N3C[C@@]5(F)CC[C@](F)(N5)[C@H]3CCC4)c12` [Example 4-9, 2-fluoro-6-hydroxy-8-((6aR,7R,10S)-1,7,10-trifluoro-13-((tetrahydro-1H-pyrrolizin-7a(5H)-yl)methoxy)-5,6,6a,7,8,9,10,11-octahydro-4H-3,11a,12,14,15-pentaaza-7,10-methanocyclohepta[4,5]cycloocta[1,2,3-de]naphthalen-2-yl)-1-naphthonitrile], the EC50 in assay [4] was found to be 6.08 nM; in assay [2], 13.2 nM; in assay [3], 323 nM.
On the same counts, the results for `C#Cc1c(F)ccc2c(F)c(N)cc(-c3nc4c5c(nc(OCC67CCCN6CCC7)nc5c3F)N3C[C@@]5(F)CC[C@](F)(N5)[C@H]3CCC4)c12` [Example 4-18, 5-ethynyl-1,6-difluoro-4-((6aR,7R,10S)-1,7,10-trifluoro-13-((tetrahydro-1H-pyrrolizin-7a(5H)-yl)methoxy)-5,6,6a,7,8,9,10,11-octahydro-4H-3,11a,12,14,15-pentaaza-7,10-methanocyclohepta[4,5]cycloocta[1,2,3-de]naphthalen-2-yl)naphthalen-2-amine] are 22.3 nM, 13.3 nM and 388 nM.
On the same counts, the results for `Oc1cc(-c2nc3c4c(nc(OCC56CCCN5CCC6)nc4c2F)N2C[C@@]4(F)CC[C@](F)(N4)[C@H]2CCC3)c2c(F)c(F)ccc2c1` [Example 4-22, 5,6-difluoro-4-[(4S,7R,8R)-4,7,15-trifluoro-18-(1,2,3,5,6,7-hexahydropyrrolizin-8-ylmethoxy)-2,13,17,19,21-pentazapentacyclo[10.7.1.14,7.02,8.016,20]henicosa-1(19),12(20),13,15,17-pentaen-14-yl]naphthalen-2-ol] are 2.03 nM, 4.1 nM and 83.4 nM.
The like results for `C#Cc1c(F)ccc2cccc(-c3nc4c5c(nc(OCC67CCCN6CCC7)nc5c3F)N3C[C@@]5(F)CC[C@](F)(N5)[C@@H]3[C@@H](C)C4)c12` [Example 4-31, (5S,5aS,6R,9S)-2-(8-ethynyl-7-fluoronaphthalen-1-yl)-1,6,9-trifluoro-5-methyl-12-((tetrahydro-1H-pyrrolizin-7a(5H)-yl)methoxy)-4,5,5a,6,7,8,9,10-octahydro-3,10a,11,13,14-pentaaza-6,9-methanonaphtho[1,8-ab]heptalene] were, in that order, 2.19 nM, 1.36 nM and 38.1 nM.
Take `C#Cc1c(F)c(F)cc2cc(O)cc(-c3nc4c5c(nc(OCC67CCCN6CCC7)nc5c3F)N3C[C@@]5(F)CC[C@](F)(N5)[C@@H]3[C@@H](C)C4)c12` [Example 4-33, 5-ethynyl-6,7-difluoro-4-((5S,5aS,6R,9S)-1,6,9-trifluoro-5-methyl-12-((tetrahydro-1H-pyrrolizin-7a(5H)-yl)methoxy)-4,5,5a,6,7,8,9,10-octahydro-3,10a,11,13,14-pentaaza-6,9-methanonaphtho[1,8-ab]heptalen-2-yl)naphthalen-2-ol]: the EC50 in assay [4] was 0.286 nM; in assay [2], 8.68 nM; in assay [3], 12.4 nM.
For `C#Cc1c(F)ccc2cc(N)cc(-c3nc4c5c(nc(OC[C@@]67CCCN6C[C@H](F)C7)nc5c3F)N3C[C@@]5(F)CC[C@H](N5)[C@@H]3[C@@H](C)[C@H]4C)c12` [Example 4-37, 4-((4R,5S,5aS,6S,9S)-1,9-difluoro-12-(((2R,7aS)-2-fluorotetrahydro-1H-pyrrolizin-7a(5H)-yl)methoxy)-4,5-dimethyl-4,5,5a,6,7,8,9,10-octahydro-3,10a,11,13,14-pentaaza-6,9-methanonaphtho[1,8-ab]heptalen-2-yl)-5-ethynyl-6-fluoronaphthalen-2-amine], the EC50 amounted to 0.153 nM in assay [4], 0.475 nM in assay [1] and 4.65 nM in assay [3].
As to `Nc1cc(-c2nc3c4c(nc(OCC56CCCN5CCC6)nc4c2F)N2C[C@@]4(F)CC[C@](F)(N4)[C@H]2CCC3)c2c(Cl)c(F)ccc2c1` [Example 5-2, 5-chloro-6-fluoro-4-((6aR,7R,10S)-1,7,10-trifluoro-13-((tetrahydro-1H-pyrrolizin-7a(5H)-yl)methoxy)-5,6,6a,7,8,9,10,11-octahydro-4H-3,11a,12,14,15-pentaaza-7,10-methanocyclohepta[4,5]cycloocta[1,2,3-de]naphthalen-2-yl)naphthalen-2-amine], the figures for the EC50 in assay [4], in assay [2] and in assay [3] were 17.7 nM, 4.4 nM and 338 nM, respectively.
On the same counts, the results for `CCc1c(F)ccc2cc(N)cc(-c3nc4c5c(nc(OCC67CCCN6CCC7)nc5c3F)N3C[C@@]5(F)CC[C@](F)(N5)[C@H]3CCC4)c12` [Example 6-2, 5-ethyl-6-fluoro-4-((6aR,7R,10S)-1,7,10-trifluoro-13-((tetrahydro-1H-pyrrolizin-7a(5H)-yl)methoxy)-5,6,6a,7,8,9,10,11-octahydro-4H-3,11a,12,14,15-pentaaza-7,10-methanocyclohepta[4,5]cycloocta[1,2,3-de]naphthalen-2-yl)naphthalen-2-amine] are 22.6 nM, 6.48 nM and 456 nM.
On the same counts, the results for `CCc1c(F)ccc2cc(O)cc(-c3nc4c5c(nc(OCC67CCCN6CCC7)nc5c3F)N3C[C@@]5(F)CC[C@](F)(N5)[C@@H]3[C@@H](C)C4)c12` [Example 6-3, 5-ethyl-6-fluoro-4-((8S,8aS,9R,12S)-4,9,12-trifluoro-8-methyl-2-((tetrahydro-1H-pyrrolizin-7a(5H)-yl)methoxy)-7,8,8a,9,10,11,12,13-octahydro-1,3,6,13a,14-pentaaza-9,12-methanonaphtho[1,8-ab]heptalen-5-yl)naphthalen-2-ol] are 0.513 nM, 6.62 nM and 20 nM.
The like results for `CCc1c(F)ccc2cc(N)cc(-c3nc4c5c(nc(OCC67CCCN6CCC7)nc5c3F)N3C[C@@]5(F)CC[C@](F)(N5)[C@@H]3[C@@H](C)C4)c12` [Example 6-4, 5-ethyl-6-fluoro-4-((8S,8aS,9R,12S)-4,9,12-trifluoro-8-methyl-2-((tetrahydro-1H-pyrrolizin-7a(5H)-yl)methoxy)-7,8,8a,9,10,11,12,13-octahydro-1,3,6,13a,14-pentaaza-9,12-methanonaphtho[1,8-ab]heptalen-5-yl)naphthalen-2-amine] were, in that order, 12.8 nM, 8.24 nM and 197 nM.
